Source: the supplement of paper PMC10307832

What was measured:
Experiment in all cases: relative viability (nuclei count vs DMSO), 5 days (fraction); higher = more cells survive
Wnt-C59 + Foretinib = compound: CC1=NC=CC(=C1)C2=CC=C(C=C2)CC(=O)NC3=CC=C(C=C3)C4=CN=CC=C4 [Wnt-C59] + COc1cc2c(Oc3ccc(NC(=O)C4(C(=O)Nc5ccc(F)cc5)CC4)cc3F)ccnc2cc1OCCCN1CCOCC1 [Foretinib] (partner 0.25 µM)
Summary of the method: (§1)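 Cells from lung cancer lines were seeded into 1536-well plates and, one day later, dosed by pin tool. Treatments were either a single drug or a fixed dose of an anchor drug with five library-drug doses (not always all listed) in √10 steps. After 5 days, nuclei were stained in a one-step fixation (final 0.05% Triton X-100, 1% formaldehyde, 1 ug/ml Hoechst) and counted on 4× images, and relative viability is the treated-to-vehicle nuclei ratio, as the median of duplicate plates.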

Lapatinib + Pictilisib = compound: CS(=O)(=O)CCNCc1ccc(-c2ccc3ncnc(Nc4ccc(OCc5cccc(F)c5)c(Cl)c4)c3c2)o1 [Lapatinib] + CS(=O)(=O)N1CCN(Cc2cc3nc(-c4cccc5[nH]ncc45)nc(N4CCOCC4)c3s2)CC1 [Pictilisib] (partner 1 µM)
Summary of the method: as §1

Wnt-C59 + Crizotinib = compound: CC1=NC=CC(=C1)C2=CC=C(C=C2)CC(=O)NC3=CC=C(C=C3)C4=CN=CC=C4 [Wnt-C59] + C[C@@H](Oc1cc(-c2cnn(C3CCNCC3)c2)cnc1N)c1c(Cl)ccc(F)c1Cl [Crizotinib] (partner 1 µM)
Summary of the method: as §1

Lapatinib + Decitabine = compound: CS(=O)(=O)CCNCc1ccc(-c2ccc3ncnc(Nc4ccc(OCc5cccc(F)c5)c(Cl)c4)c3c2)o1 [Lapatinib] + Nc1ncn([C@H]2C[C@H](O)[C@@H](CO)O2)c(=O)n1 [Decitabine] (partner 2 µM)
Summary of the method: as §1

Cell Line | relative viability (Wnt-C59 + Foretinib; first compound 0.001 µM) | relative viability (Wnt-C59 + Foretinib; first compound 0.01 µM) | relative viability (Wnt-C59 + Foretinib; first compound 0.03162 µM) | relative viability (Wnt-C59 + Foretinib; first compound 0.1 µM) | relative viability (Lapatinib + Pictilisib; first compound 0.02 µM) | relative viability (Lapatinib + Pictilisib; first compound 0.06325 µM) | relative viability (Lapatinib + Pictilisib; first compound 0.2 µM) | relative viability (Lapatinib + Pictilisib; first compound 0.6325 µM) | relative viability (Lapatinib + Pictilisib; first compound 2 µM) | relative viability (Wnt-C59 + Crizotinib; first compound 0.001 µM) | relative viability (Wnt-C59 + Crizotinib; first compound 0.01 µM) | relative viability (Wnt-C59 + Crizotinib; first compound 0.03162 µM) | relative viability (Wnt-C59 + Crizotinib; first compound 0.1 µM) | relative viability (Lapatinib + Decitabine; first compound 0.02 µM) | relative viability (Lapatinib + Decitabine; first compound 0.06325 µM) | relative viability (Lapatinib + Decitabine; first compound 0.2 µM) | relative viability (Lapatinib + Decitabine; first compound 0.6325 µM) | relative viability (Lapatinib + Decitabine; first compound 2 µM)
NCI-H460 | 1.03 | 0.966 | 1.02 | 0.94 | 0.057 | 0.276 | 0.303 | 0.355 | 0.251 | 0.996 | 0.961 | 0.878 | 0.689 | 0.429 | 0.488 | 0.542 | 0.435 | 0.461
NCI-H358 | 0.759 | 0.648 | 1.04 | 0.678 | 0.334 | – | 0.301 | 0.304 | 0.309 | 0.608 | 0.525 | 0.436 | 0.625 | 0.205 | 0.181 | 0.206 | 0.162 | 0.152
SW 1573 | 1.13 | 1.03 | 0.879 | 0.784 | 0.471 | 0.444 | 0.61 | 0.452 | 0.533 | 0.771 | 0.764 | 0.746 | 0.825 | 0.492 | 0.437 | 0.565 | 0.633 | 0.489
HCC-366 | 0.896 | 0.975 | 0.922 | 0.89 | 0.133 | 0.0868 | 0.131 | 0.135 | 0.0768 | 0.45 | 0.541 | 0.605 | 0.472 | – | 0.348 | 0.405 | 0.368 | 0.291
NCI-H520 | 0.792 | 0.696 | 0.867 | 0.689 | 0.308 | 0.285 | 0.269 | 0.332 | 0.348 | 0.915 | 0.83 | 0.831 | 0.716 | 0.433 | 0.494 | 0.572 | 0.529 | 0.575
ABC-1 | 0.982 | 1.16 | 1.07 | 0.97 | – | 0.655 | 1.09 | 0.93 | 0.696 | 1.03 | 1.21 | 1.11 | 0.868 | 1.1 | 0.931 | – | 1.01 | 1.02
NCI-H2023 | 1.1 | 0.788 | 1.01 | 0.667 | 0.164 | 0.15 | 0.262 | 0.276 | 0.199 | 0.701 | 0.65 | 0.686 | 0.594 | 0.22 | 0.229 | 0.224 | 0.235 | 0.223
LOU-NH91 | 0.941 | 0.764 | 0.988 | 0.92 | 0.395 | 0.451 | 0.425 | 0.513 | 0.447 | 0.732 | 0.65 | 0.738 | 0.766 | 0.789 | 0.709 | 0.65 | 0.663 | 0.652
NCI-H727 | 0.983 | 0.917 | 0.887 | 0.904 | 0.339 | 0.246 | 0.434 | 0.357 | 0.343 | 0.843 | 0.779 | 0.944 | 0.682 | 0.756 | – | 0.915 | 0.915 | 0.917
